Laboratory results from publication PMC8155022 (Scientific Reports, 2021).
Where two headings read alike, the source gives them in different places.

Tests used:
MR = biological target: T1, MR (Homo sapiens, UniProt P08235); assay: nuclear receptor cellular GAL4 reporter assay; assay type: cell-based; conditions: agonist and antagonist mode; read-out: potency in agonist and antagonist mode
T1 construct: expressed in transfected cells

5HT2A = 5HT2A (Homo sapiens, UniProt P28223); assay: GPCR panel, cAMP or calcium FLIPR assays; assay type: cell-based
Procedure: (§1) 28 GPCRs were evaluated through cAMP or calcium FLIPR assays[67]. A panel of 52 different receptors, ion channels and transporters was tested by Cerep, Inc. (Redmond, WA).

Plk1(h) = biological target: T2, Plk1(h) (Homo sapiens, UniProt P53350); assay: Kinase panel; assay type: biochemical
T2 construct: purchased Cerep (receptors, ion channels, transporters); Eurofins Panlabs (kinases)
Procedure: (§2) Kinase selectivity was conducted by Eurofins Panlabs Inc (St Charles, MO).

ROCK-I(h) = biological target: T3, ROCK-I(h) (Homo sapiens, UniProt Q13464); assay: Kinase panel; assay type: biochemical
T3 construct: purchased Cerep (receptors, ion channels, transporters); Eurofins Panlabs (kinases)
Procedure: as §2

D1 (h) = biological target: T4, D1 (h) (Homo sapiens, UniProt P21728); assay: Cerep panel; assay type: binding
T4 construct: purchased Cerep (receptors, ion channels, transporters); Eurofins Panlabs (kinases)
Procedure: (§3) A panel of 52 different receptors, ion channels and transporters was tested by Cerep, Inc. (Redmond, WA).

human whole blood = assay: in vitro whole blood assay, IL-17A production; assay type: cell-based; conditions: human whole blood diluted 1:1; read-out: IC50, inhibition of IL-17A production
[1] = system: bacterial reverse mutation assay (AMES test); assay: bacterial reverse mutation assay (AMES test); assay type: cell-based; conditions: in vitro
A1 (h) = biological target: T5, A1 (h) (Homo sapiens, UniProt P30542); assay: Cerep panel; assay type: binding
T5 construct: purchased Cerep (receptors, ion channels, transporters); Eurofins Panlabs (kinases)
Procedure: as §3

M1 = M1 (Homo sapiens, UniProt P11229); assay: GPCR panel, cAMP or calcium FLIPR assays; assay type: cell-based
Procedure: (§4) 28 GPCRs were evaluated through cAMP or calcium FLIPR assays[67].

DA-T transporter (h) = biological target: T6, DA-T transporter (h) (Homo sapiens, UniProt Q01959); assay: Cerep panel; assay type: binding
T6 construct: purchased Cerep (receptors, ion channels, transporters); Eurofins Panlabs (kinases)
Procedure: as §1

5HT6 = 5HT6 (Homo sapiens, UniProt P50406); assay: GPCR panel, cAMP or calcium FLIPR assays; assay type: cell-based
Procedure: as §4

SAPK3(h) = biological target: T7, SAPK3(h) (Homo sapiens, UniProt P53778); assay: Kinase panel; assay type: biochemical
T7 construct: purchased Cerep (receptors, ion channels, transporters); Eurofins Panlabs (kinases)
Procedure: as §2

A2A (h) = biological target: T8, A2A (h) (Homo sapiens, UniProt P29274); assay: Cerep panel; assay type: binding
T8 construct: purchased Cerep (receptors, ion channels, transporters); Eurofins Panlabs (kinases)
Procedure: as §3

D1 = D1 (Homo sapiens, UniProt P21728); assay: GPCR panel, cAMP or calcium FLIPR assays; assay type: cell-based
Procedure: as §4

M3 (h) = biological target: T9, M3 (h) (Homo sapiens, UniProt P20309); assay: Cerep panel; assay type: binding
T9 construct: purchased Cerep (receptors, ion channels, transporters); Eurofins Panlabs (kinases)
Procedure: as §3

Aurora-A(h) = biological target: T10, Aurora-A(h) (Homo sapiens, UniProt O14965); assay: Kinase panel; assay type: biochemical
T10 construct: purchased Cerep (receptors, ion channels, transporters); Eurofins Panlabs (kinases)
Procedure: as §2

cSRC(h) = biological target: T11, cSRC(h) (Homo sapiens, UniProt P12931); assay: Kinase panel; assay type: biochemical
T11 construct: purchased Cerep (receptors, ion channels, transporters); Eurofins Panlabs (kinases)
Procedure: as §2

[2] = system: human CD4+ T cells under Th17 differentiation; assay: in vitro human Th17 differentiation, cytokine production
Procedure: On day 4, supernatants were analyzed for IL-17A, IL-17F, IL-22 and IFNγ production.
Total CD4^+ T cells were isolated from peripheral blood mononuclear cells (PBMCs) of healthy donors using a CD4^+ T cell Isolation Kit II (Miltenyl Biotec, Auburn, CA), following the manufacturer’s instructions.
In vitro human Th17 and Th1 differentiation
Total CD4+ T cells were isolated from the peripheral blood mononuclear cells (PBMCs) of healthy donors
using a CD4+ T cell Isolation Kit II (Miltenyl Biotec, Auburn, CA), following the manufacturer’s
instructions. Isolated T cells were resuspended in culture medium and added to a 96-well plate at 1×105
beads (prepared using human T cell activation/expansion kit, Miltenyi Biotec) at final concentration of
3x10^6/mL, and cocktail for either Th17 differentiation (10 µg/mL anti-IL-4, 10 µg/mL anti-IFN, 10 ng/mL
IL-1β, 10 ng/mL IL-23, 50 ng/mL IL-6, 3 ng/mL TGFβ and 20 U/mL IL-2), or for Th1 differentiation (10
µg/mL anti-IL-4, 10 ng/mL IL-12, and 20 U/mL IL-2). Cells were cultured at 37°C and 5% CO2 for 3 days.
Supernatants were assayed for accumulated cytokines using MSD multi-spot assay (Meso Scale
Discovery, Rockville, MD) or R&D ELISA kit.

delta 2 (h) (DOP) = biological target: T12, delta 2 (h) (DOP) (Homo sapiens, UniProt P41143); assay: Cerep panel; assay type: binding
T12 construct: purchased Cerep (receptors, ion channels, transporters); Eurofins Panlabs (kinases)
Procedure: as §3

PDGFRβ(h) = biological target: T13, PDGFRβ(h) (Homo sapiens, UniProt P09619); assay: Kinase panel; assay type: biochemical
T13 construct: purchased Cerep (receptors, ion channels, transporters); Eurofins Panlabs (kinases)
Procedure: as §2

FXR = biological target: T14, FXR (Homo sapiens, UniProt Q96RI1); assay: nuclear receptor cellular GAL4 reporter assay; assay type: cell-based; conditions: agonist and antagonist mode; read-out: potency in agonist and antagonist mode
T14 construct: expressed in transfected cells

IR(h) = biological target: T15, IR(h) (Homo sapiens, UniProt P06213); assay: Kinase panel; assay type: biochemical
T15 construct: purchased Cerep (receptors, ion channels, transporters); Eurofins Panlabs (kinases)
Procedure: as §2

IKKβ(h) = biological target: T16, IKKβ(h) (Homo sapiens, UniProt O14920); assay: Kinase panel; assay type: biochemical
T16 construct: purchased Cerep (receptors, ion channels, transporters); Eurofins Panlabs (kinases)
Procedure: as §2

MT1 (h) = biological target: T17, MT1 (h) (Homo sapiens, UniProt P48039); assay: Cerep panel; assay type: binding
T17 construct: purchased Cerep (receptors, ion channels, transporters); Eurofins Panlabs (kinases)
Procedure: as §3

ZAP-70(h) = biological target: T18, ZAP-70(h) (Homo sapiens, UniProt P43403); assay: Kinase panel; assay type: biochemical
T18 construct: purchased Cerep (receptors, ion channels, transporters); Eurofins Panlabs (kinases)
Procedure: as §2

5HT7 = 5HT7 (Homo sapiens, UniProt P34969); assay: GPCR panel, cAMP or calcium FLIPR assays; assay type: cell-based
Procedure: as §4

mouse whole blood = assay: in vitro whole blood assay, IL-17A production; assay type: cell-based; conditions: mouse whole blood diluted 1:4; read-out: IC50, inhibition of IL-17A production
EphA2(h) = biological target: T19, EphA2(h) (Homo sapiens, UniProt P29317); assay: Kinase panel; assay type: biochemical
T19 construct: purchased Cerep (receptors, ion channels, transporters); Eurofins Panlabs (kinases)
Procedure: as §2

JAK2(h) = biological target: T20, JAK2(h) (Homo sapiens, UniProt O60674); assay: Kinase panel; assay type: biochemical
T20 construct: purchased Cerep (receptors, ion channels, transporters); Eurofins Panlabs (kinases)
Procedure: as §2

CCKA (h) (CCK1) = biological target: T21, CCKA (h) (CCK1) (Homo sapiens, UniProt P32238); assay: Cerep panel; assay type: binding
T21 construct: purchased Cerep (receptors, ion channels, transporters); Eurofins Panlabs (kinases)
Procedure: as §3

CaMKIδ(h) = biological target: T22, CaMKIδ(h) (Homo sapiens, UniProt Q8IU85); assay: Kinase panel; assay type: biochemical
T22 construct: purchased Cerep (receptors, ion channels, transporters); Eurofins Panlabs (kinases)
T22 sequence (Q8IU85 whole entry): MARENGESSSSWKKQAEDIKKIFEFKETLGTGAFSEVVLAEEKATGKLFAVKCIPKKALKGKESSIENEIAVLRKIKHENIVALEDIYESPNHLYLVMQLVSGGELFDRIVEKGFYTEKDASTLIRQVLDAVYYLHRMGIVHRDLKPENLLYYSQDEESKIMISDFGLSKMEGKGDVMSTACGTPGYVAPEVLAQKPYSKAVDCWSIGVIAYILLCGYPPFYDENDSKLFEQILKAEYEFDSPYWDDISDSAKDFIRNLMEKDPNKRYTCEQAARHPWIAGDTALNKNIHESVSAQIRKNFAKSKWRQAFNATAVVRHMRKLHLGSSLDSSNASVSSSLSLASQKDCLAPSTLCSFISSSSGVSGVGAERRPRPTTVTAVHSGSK
Procedure: as §2

T18 sequence (P43403 whole entry): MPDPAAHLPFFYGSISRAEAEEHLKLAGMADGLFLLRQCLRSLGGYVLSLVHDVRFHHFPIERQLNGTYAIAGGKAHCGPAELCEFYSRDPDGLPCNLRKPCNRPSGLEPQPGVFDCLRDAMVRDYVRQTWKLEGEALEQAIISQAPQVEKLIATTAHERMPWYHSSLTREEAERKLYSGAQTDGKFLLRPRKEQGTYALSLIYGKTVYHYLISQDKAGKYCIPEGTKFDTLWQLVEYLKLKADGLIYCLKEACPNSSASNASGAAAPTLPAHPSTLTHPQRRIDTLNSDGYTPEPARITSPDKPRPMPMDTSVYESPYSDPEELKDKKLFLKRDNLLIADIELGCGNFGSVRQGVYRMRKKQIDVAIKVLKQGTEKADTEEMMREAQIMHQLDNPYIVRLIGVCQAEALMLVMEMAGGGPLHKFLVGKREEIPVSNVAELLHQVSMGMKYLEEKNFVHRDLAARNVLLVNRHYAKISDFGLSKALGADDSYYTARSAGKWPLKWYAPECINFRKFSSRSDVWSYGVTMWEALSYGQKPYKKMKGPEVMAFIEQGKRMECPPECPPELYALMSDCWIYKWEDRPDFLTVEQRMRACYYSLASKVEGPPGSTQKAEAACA
T3 sequence (Q13464 whole entry): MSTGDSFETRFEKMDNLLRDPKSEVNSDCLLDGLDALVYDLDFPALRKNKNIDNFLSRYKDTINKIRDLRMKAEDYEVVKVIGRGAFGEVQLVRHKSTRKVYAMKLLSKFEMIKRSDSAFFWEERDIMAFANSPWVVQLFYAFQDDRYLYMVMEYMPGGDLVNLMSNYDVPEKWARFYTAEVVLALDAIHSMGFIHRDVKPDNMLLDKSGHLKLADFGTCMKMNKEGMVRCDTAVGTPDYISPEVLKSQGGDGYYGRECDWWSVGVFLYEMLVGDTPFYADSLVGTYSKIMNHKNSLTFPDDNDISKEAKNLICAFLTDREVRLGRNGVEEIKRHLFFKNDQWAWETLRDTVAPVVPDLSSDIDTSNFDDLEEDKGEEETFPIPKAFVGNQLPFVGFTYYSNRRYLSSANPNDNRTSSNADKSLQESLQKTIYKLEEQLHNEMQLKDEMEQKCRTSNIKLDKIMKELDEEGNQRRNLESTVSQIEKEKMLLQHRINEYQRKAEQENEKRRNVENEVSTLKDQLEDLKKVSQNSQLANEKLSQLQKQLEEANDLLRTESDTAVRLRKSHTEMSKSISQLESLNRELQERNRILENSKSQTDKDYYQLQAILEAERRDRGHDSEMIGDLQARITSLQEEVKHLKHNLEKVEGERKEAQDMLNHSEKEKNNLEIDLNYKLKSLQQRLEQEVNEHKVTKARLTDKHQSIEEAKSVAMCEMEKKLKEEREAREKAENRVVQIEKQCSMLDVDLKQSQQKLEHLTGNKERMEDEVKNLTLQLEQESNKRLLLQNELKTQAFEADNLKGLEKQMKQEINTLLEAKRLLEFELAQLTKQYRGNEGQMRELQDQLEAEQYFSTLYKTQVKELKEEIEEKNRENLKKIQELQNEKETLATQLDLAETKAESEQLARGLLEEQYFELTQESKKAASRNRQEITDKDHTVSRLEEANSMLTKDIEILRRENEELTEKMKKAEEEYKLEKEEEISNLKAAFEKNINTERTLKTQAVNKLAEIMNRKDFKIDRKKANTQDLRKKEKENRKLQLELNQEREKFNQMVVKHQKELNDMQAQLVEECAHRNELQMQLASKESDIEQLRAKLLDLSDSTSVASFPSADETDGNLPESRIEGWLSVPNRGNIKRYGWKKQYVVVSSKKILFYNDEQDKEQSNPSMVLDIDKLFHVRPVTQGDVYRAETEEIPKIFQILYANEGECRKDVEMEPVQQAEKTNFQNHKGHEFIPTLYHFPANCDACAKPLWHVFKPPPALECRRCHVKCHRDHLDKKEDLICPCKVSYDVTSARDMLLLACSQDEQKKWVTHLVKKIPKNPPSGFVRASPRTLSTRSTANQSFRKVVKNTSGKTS
Chain of 5HT6 (P50406 whole entry): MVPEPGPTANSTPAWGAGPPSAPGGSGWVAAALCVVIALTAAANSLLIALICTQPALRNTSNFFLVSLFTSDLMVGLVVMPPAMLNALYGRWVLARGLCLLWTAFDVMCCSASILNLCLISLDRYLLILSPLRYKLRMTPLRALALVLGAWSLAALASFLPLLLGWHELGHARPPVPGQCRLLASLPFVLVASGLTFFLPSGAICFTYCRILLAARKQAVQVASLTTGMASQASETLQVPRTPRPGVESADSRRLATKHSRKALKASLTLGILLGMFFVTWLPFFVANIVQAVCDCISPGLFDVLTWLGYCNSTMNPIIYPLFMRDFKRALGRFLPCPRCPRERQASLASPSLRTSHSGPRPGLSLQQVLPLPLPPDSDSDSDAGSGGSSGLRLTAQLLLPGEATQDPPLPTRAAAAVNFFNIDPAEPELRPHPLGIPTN
T8 sequence (P29274 whole entry): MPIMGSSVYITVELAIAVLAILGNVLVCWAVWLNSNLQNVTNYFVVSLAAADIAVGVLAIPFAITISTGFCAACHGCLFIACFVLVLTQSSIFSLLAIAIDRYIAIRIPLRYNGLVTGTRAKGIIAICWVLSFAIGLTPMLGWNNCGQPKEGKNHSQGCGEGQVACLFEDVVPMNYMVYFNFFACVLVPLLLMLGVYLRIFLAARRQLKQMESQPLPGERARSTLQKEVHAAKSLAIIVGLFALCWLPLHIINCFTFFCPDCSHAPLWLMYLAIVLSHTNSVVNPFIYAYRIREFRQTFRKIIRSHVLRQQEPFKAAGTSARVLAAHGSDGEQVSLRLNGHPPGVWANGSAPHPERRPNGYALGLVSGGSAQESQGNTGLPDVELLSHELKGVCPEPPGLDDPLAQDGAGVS
Chain of M1 (P11229 whole entry): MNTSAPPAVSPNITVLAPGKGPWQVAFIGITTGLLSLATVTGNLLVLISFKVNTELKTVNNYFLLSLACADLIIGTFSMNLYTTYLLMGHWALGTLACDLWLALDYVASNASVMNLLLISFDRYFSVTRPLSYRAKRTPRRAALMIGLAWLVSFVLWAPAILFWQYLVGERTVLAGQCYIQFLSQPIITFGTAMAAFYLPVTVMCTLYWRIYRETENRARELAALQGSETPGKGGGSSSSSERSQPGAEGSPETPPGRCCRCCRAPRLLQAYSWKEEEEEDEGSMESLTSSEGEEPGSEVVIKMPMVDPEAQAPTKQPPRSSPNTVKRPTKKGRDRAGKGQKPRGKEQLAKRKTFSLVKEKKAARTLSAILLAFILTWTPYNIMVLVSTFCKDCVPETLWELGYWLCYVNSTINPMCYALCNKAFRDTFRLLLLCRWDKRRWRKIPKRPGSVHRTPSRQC
T12 sequence (P41143 whole entry): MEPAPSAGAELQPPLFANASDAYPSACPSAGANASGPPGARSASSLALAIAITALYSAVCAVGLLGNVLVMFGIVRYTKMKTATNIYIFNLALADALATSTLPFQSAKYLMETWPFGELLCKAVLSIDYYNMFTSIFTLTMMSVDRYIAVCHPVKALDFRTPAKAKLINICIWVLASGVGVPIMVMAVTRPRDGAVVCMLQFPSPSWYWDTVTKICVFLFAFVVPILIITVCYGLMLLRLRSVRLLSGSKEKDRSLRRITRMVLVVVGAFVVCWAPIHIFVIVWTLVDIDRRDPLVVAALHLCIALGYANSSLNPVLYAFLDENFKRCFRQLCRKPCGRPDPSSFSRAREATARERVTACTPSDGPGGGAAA
T5 sequence (P30542 whole entry): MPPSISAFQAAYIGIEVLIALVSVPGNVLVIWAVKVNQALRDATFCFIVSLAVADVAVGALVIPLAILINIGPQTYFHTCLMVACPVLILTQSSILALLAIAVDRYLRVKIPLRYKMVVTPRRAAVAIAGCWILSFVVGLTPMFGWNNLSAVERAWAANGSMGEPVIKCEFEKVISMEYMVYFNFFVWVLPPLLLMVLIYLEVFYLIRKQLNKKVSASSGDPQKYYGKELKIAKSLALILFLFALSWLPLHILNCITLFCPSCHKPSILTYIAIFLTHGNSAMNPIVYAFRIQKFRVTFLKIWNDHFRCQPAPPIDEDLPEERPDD
T6 sequence (Q01959 whole entry): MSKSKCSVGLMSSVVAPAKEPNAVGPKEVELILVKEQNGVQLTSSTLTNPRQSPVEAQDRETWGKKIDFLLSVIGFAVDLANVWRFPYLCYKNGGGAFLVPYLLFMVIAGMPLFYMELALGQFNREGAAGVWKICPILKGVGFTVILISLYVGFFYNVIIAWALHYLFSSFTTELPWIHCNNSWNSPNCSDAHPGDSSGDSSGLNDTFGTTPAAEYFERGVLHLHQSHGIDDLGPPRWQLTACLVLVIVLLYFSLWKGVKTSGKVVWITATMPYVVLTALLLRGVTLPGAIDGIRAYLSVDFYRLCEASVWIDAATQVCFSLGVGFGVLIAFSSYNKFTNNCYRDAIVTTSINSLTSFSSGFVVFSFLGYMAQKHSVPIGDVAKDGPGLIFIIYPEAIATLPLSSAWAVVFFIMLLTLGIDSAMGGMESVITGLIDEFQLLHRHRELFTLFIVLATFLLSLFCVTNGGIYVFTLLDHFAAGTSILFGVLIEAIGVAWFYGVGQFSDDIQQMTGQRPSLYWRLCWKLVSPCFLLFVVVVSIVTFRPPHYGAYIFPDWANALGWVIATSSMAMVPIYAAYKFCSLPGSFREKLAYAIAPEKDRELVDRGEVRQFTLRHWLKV

In the case of `CC1CCCN1C(=O)c1nc(C(=O)NCC(C)(C)O)sc1-c1ccc(C(O)(C(F)(F)F)C(F)(F)F)c(Cl)c1Cl` (stereo not shown) [JNJ-61803534], the IC50 (MR) is reported as over 1500 nM, the EC50 (5HT2A; agonist) is reported as over 10 µM and the IC50 (5HT2A; antagonist) is reported as over 10 µM. The activity at 1 µM (Plk1(h)) was 111%, the activity at 10 µM (Plk1(h)) was 104% and the activity at 1 µM (ROCK-I(h)) was 108%. It also gave an activity at 10 µM (ROCK-I(h)) of 110%, an inhibition at 1 µM (D1 (h)) of under 10% and an inhibition at 10 µM (D1 (h)) of under 10%. For the same compound, the IC50 (human whole blood) was 230 ± 110 nM, the genetic toxicity [1] was “negative” and the inhibition at 1 µM (A1 (h)) was under 10%. The inhibition at 10 µM (A1 (h)) was under 10%, the EC50 (M1; agonist) was over 10 µM and the IC50 (M1; antagonist) was over 10 µM. The inhibition at 1 µM (DA-T transporter (h)) was under 10%, the inhibition at 10 µM (DA-T transporter (h)) was under 10% and the EC50 (5HT6; agonist) was over 12.5 µM. For the same compound, the IC50 (5HT6; antagonist) was over 12.5 µM, the activity at 1 µM (SAPK3(h)) was 106% and the activity at 10 µM (SAPK3(h)) was 112%. It also gave an inhibition at 1 µM (A2A (h)) of under 10%, an inhibition at 10 µM (A2A (h)) of under 10% and an EC50 (D1; agonist) of over 12.5 µM. The IC50 (D1; antagonist) was over 12.5 µM, the inhibition at 1 µM (M3 (h)) was under 10% and the inhibition at 10 µM (M3 (h)) was under 10%. For the same compound, the activity at 1 µM (Aurora-A(h)) was 97%, the activity at 10 µM (Aurora-A(h)) was 102% and the activity at 1 µM (cSRC(h)) was 78%. It also gave an activity at 10 µM (cSRC(h)) of 80%, an IC50 ([2]; read-out: IC50 (95% confidence intervals), IL-17A production) of 19 nM and an IC50 ([2]; read-out: IC50 (95% confidence intervals), IL-17F production) of 22 nM. It also gave an IC50 ([2]; read-out: IC50 (95% confidence intervals), IL-22 production) of 27 nM, an inhibition at 1 µM (delta 2 (h) (DOP)) of under 10% and an inhibition at 10 µM (delta 2 (h) (DOP)) of under 10%. For the same compound, the activity at 1 µM (PDGFRβ(h)) was 103%, the activity at 10 µM (PDGFRβ(h)) was 143% and the IC50 (FXR) was over 1500 nM. For the same compound, the activity at 1 µM (IR(h)) was 92%, the activity at 10 µM (IR(h)) was 89% and the activity at 1 µM (IKKβ(h)) was 75%. The activity at 10 µM (IKKβ(h)) was 138%, the inhibition at 1 µM (MT1 (h)) was under 10% and the inhibition at 10 µM (MT1 (h)) was 20.4%. It also gave an activity at 1 µM (ZAP-70(h)) of 137%, an activity at 10 µM (ZAP-70(h)) of 119% and an EC50 (5HT7; agonist) of over 12.5 µM. It also gave an IC50 (5HT7; antagonist) of over 12.5 µM, an IC50 (mouse whole blood) of 172 ± 50 nM and an activity at 1 µM (EphA2(h)) of 99%. It also gave an activity at 10 µM (EphA2(h)) of 102%, an activity at 1 µM (JAK2(h)) of 109% and an activity at 10 µM (JAK2(h)) of 105%. It also gave an inhibition at 1 µM (CCKA (h) (CCK1)) of under 10%, an inhibition at 10 µM (CCKA (h) (CCK1)) of under 10% and an activity at 1 µM (CaMKIδ(h)) of 81%. The activity at 10 µM (CaMKIδ(h)) was 100%.
